Data from patent US20100234417A1, “THYROTROPIN RELEASING HORMONE RECEPTOR-OREXIN RECEPTOR HETERO-DIMERS/-OLIGOMERS” (DIMERIX BIOSCIENCE PTY LTD., priority 2006, published 2010).
Ends that are not written are not given here.

What was measured:
[1] = target: T1, thyrotropin releasing hormone receptor (TRHR) (Rattus norvegicus, UniProt Q01717); assay: eBRET/BRET beta-arrestin recruitment to TRHR/Rluc without IG3 (pcDNA3) in HEK293 cells; format: cell-based
T1 construct: expressed in transfected cells; host or cells: HEK293 (HEK293FT)
T1 sequence (Q01717 1-412): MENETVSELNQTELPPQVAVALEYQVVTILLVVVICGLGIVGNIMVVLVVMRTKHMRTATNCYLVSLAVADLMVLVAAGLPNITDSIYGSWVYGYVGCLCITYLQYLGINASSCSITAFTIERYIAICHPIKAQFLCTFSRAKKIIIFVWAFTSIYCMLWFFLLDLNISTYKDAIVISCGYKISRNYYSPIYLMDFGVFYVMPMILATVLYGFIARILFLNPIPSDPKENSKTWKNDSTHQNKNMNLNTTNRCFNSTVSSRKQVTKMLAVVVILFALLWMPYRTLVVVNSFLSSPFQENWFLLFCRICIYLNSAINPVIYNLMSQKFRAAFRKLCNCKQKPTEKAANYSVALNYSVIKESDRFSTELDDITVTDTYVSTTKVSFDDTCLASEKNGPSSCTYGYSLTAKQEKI
From the text: (§1) Briefly, referring to FIGS. 1 to 3, the IGs are provided in the form of the two receptors (TRHR and OxR). One of the two is attached to an RC (IG1-RC1, IG3). A second IG (IG2-RC2) is derived from a molecule that interacts with the receptors upon ligand binding (e.g. beta-arrestin, or a mutant thereof). The detection system not only detects the formation of the TRHR-OxR heterodimer but can distinguish whether a ligand or drug acts as an agonist, partial agonist, antagonist, inverse agonist or partial inverse agonist at the receptor hetero-dimer.
Cells were seeded in 6-well plates at a density of approximately 630,000 cells/well (HEK293FT) or approximately 150,000 cells/well (COS-7) and maintained at 37° C., 5% CO2 in Complete Media (DMEM containing 0.3 mg/ml glutamine, 100 IU/ml penicillin and 100 μg/ml streptomycin (Gibco)) supplemented with 10% fetal calf serum (FCS; Gibco). Transient transfections were carried out 24 h after seeding using GeneJuice (Novagen) or Metafectene (Biontex) according to manufacturer instructions. 24 h post-transfection, cells were washed with PBS, detached using 0.05% trypsin/0.53 mM EDTA, resuspended in HEPES-buffered phenol red free Complete Media containing 5% FCS and added to a poly-L-lysine-coated white microplate (Nunc). 48 h post-transfection, eBRET assays were carried out following pre-incubation of cells with EnduRen™ (Promega) at a final concentration of 30-40 μM, at 37° C., 5% CO2 for 2 h. For original BRET studies, the HEPES-buffered phenol red free Complete Media was replaced with PBS and coelenterazine h (Molecular Probes) added to a final concentration of 5 μM immediately prior to commencing the assay. BRET measurements were taken at 37° C. using the Victor Light plate reader with Wallac 1420 software (Perkin-Elmer). Filtered light emissions were sequentially measured for 3-5 s in each of the ‘donor wavelength window’ (400-475 nm) and ‘acceptor wavelength window’ (>500 nm for EGFP or 520-540 nm for EYFP, Topaz (TYFP) or Venus). The BRET signal observed between interacting proteins is normalized by subtracting the background BRET ratio. This can be done in one of two ways (see Pfleger et al. (2006) Cell Signal 18, 1664-1670; Pfleger et al. (2006) Nat Protoc 1, 336-344): 1) the ratio of light emission through the acceptor wavelength window over the 400-475 nm emission for a cell sample containing only the donor construct is subtracted from the same ratio for a sample containing the interacting acceptor and donor fusion proteins; 2) the ratio of light emission through the ‘acceptor wavelength window’ over the 400-475 nm emission for a cell sample treated with vehicle is subtracted from the same ratio for a second aliquot of the same cell sample treated with ligand. In the following examples, the first calculation will be used, unless the signal is described as the ‘ligand-induced BRET ratio’. Alternatively, and particularly when illustrating z-factor data (Zhang et al. (1999) J Biomol Screen 4, 67-73), the BRET signal observed between interacting proteins can be shown in conjunction with (as oppose to being subtracted by) the background BRET ratio to evaluate error associated with the BRET signal observed between interacting proteins and the error associated with the background BRET ratio independently. In this case, data are shown as ‘fluorescence/luminescence’ being the ratio of light emission through the ‘acceptor wavelength window’ over the 400-475 nm emission for a particular cell sample. Unless otherwise stated, BRET signals were measured in 96-well microplates.
Referring now to FIG. 4, eBRET signals were measured from cells transiently co-expressing TRHR/Rluc and barr2/Venus with either pcDNA3, OxR2, CXCR2, HA-MC3R, HA-MC4R, D2LR or D2SR following the treatment of each with their respective ligands.
Referring now to FIG. 5, eBRET signals were measured from cells transiently co-expressing TRHR/Rluc and EGFP/barr1 or EGFP/barr2 with either pcDNA3 or OXR2. […]

TRHR335 with TRHR = assay: eBRET: TRHR335/Rluc + EGFP/barr1 + TRHR as IG3; format: cell-based; conditions: FIG. 9
From the text: as §1
Cells were seeded in 6-well plates at a density of approximately 630,000 cells/well (HEK293FT) or approximately 150,000 cells/well (COS-7) and maintained at 37° C., 5% CO2 in Complete Media (DMEM containing 0.3 mg/ml glutamine, 100 IU/ml penicillin and 100 μg/ml streptomycin (Gibco)) supplemented with 10% fetal calf serum (FCS; Gibco). […] BRET measurements were taken at 37° C. using the Victor Light plate reader with Wallac 1420 software (Perkin-Elmer). Filtered light emissions were sequentially measured for 3-5 s in each of the ‘donor wavelength window’ (400-475 nm) and ‘acceptor wavelength window’ (>500 nm for EGFP or 520-540 nm for EYFP, Topaz (TYFP) or Venus). […] Unless otherwise stated, BRET signals were measured in 96-well microplates. […]

[2] = TRHR/Rluc only (no OxR2) + EGFP/barr1 or EGFP/barr2, FIG. 5

Molecule	eBRET signal peak ([1]; HEK293, TRHR/Rluc + barr2/Venus + pcDNA3, ligand 10^−6M, 37 C, FIG. 4)	time to eBRET signal peak ([1]; HEK293, TRHR/Rluc + barr2/Venus + pcDNA3, ligand 10^−6M, FIG. 4)	dose-response Hill slope ([1]; TRHR/Rluc + barr2/Venus + pcDNA3, FIG. 10)	eBRET signal ([1]; TRHR/Rluc only (no HA-OxR2), FIG. 7)	eBRET signal ([1]; TRHR/Rluc only (no OxR2) + EGFP/barr1 or EGFP/barr1R169E, FIG. 8)	eBRET signal [1, 2]	eBRET signal with EGFP/barr1R169E relative to EGFP/barr1 ([1]; TRHR/Rluc only (no OxR2), FIG. 8)	eBRET signal ([1]; OxA added to cells lacking HA-OxR2, FIG. 7)	cumulative eBRET signal ([1]; TRHR/Rluc + EGFP/barr1, 0 μg OxR2 DNA/well, 10^−6M OxA, 83 mins, FIG. 16)	effect of OxA on TRH-induced eBRET signal [1, 2]	eBRET signal (TRHR335 with TRHR)
NC(=O)[C@@H]1CCCN1C(=O)[C@H](Cc1cnc[nH]1)NC(=O)[C@@H]1CCC(=O)N1 [TRH, pGlu-His-Pro-NH2]	greater than 0.17	Within the first minute	approximately 1	rapid increase in eBRET signal reaching a peak in the first few minutes	rapid increase in eBRET signal reaching a peak in the first few minutes	rapid stimulation of the eBRET signal	lower than that for EGFP/barr1	–	–	–	–
OxA: orexin A; known orexin receptor modulator, used as IG3 ligand (modulator) (QPLPDCCRQKTCSCRLYELLHGAGNHAAGILTL; ends and bridges not checked; cysteine pairing not given here; UniProt O43612 34-66, looked up)	–	–	–	–	–	–	–	No increase in eBRET signal above baseline	no signal was recorded	no difference	no eBRET signal above baseline
